# Values of other authors in patent publication EP1886664A1, “N-chloroamines containing compositions” (priority 2006, dated 2008).
# Where two headings read alike, the source gives them in different places.
# Tests used:
# [1] = system: bacterial flora in the oral cavity
# [2] = system: Skin; details: solution under 8%
# [3] = according to Buckley
# [4] = system: Bacteria, Viruses, Fungi, Seaweed, Yeasts, Parasite
# [5] = system: mouse; details: after 90 days
# [6] = system: Eye
# [7] = system: mouse; details: inhalation, 4 hours, maximum reached concentration
# [8] = system: microbacteria
SMILES,duration of antiseptic action when applied as a therapeutics ([1]; in vivo),duration of strong sustainable effect after application ([1]; mouthrinse),"Irritation, Skin [2]",antiseptic power compared to hypochlorites [3],activity compared to Dakin's liquid ([3]; in the presence of blood),biocide action ([4]; including viruses and microbacteria in the vegetative form either spori or not),"activity against microorganisms ([4]; organisms listed in the 1st table, the 2nd table and b31)","oral toxicity, level at which nothing was observed [5]","Irritation, Eye ([6]; Solution under 0.5%)","Irritation, Eye ([6]; solution under 8%)","fraction still active (ambient with organic matter and microorganisms, after 24 hours)","activity lost due to decomposition (solution under 5%, opaque container, 25°C, 210 days)","decomposed (solutions under 0.5%, 30 days, 40°C)",LC 50 [7],"sporicide, viruscide and microbacteria activity [8]"
"Cc1ccc(S(=O)(=O)NCl)cc1 [T-chloramine, sodium N-chloro-para-toluenesulfamide]",24 h,at least one,not irritating,four times higher than that of hypochlorites,more active than the Dakin's liquid,biocide action against all forms of microorganisms,active,15 mg/kg/day,not irritating,moderately irritating,approximately half,less than 0.05%,0.01%,> 0.275 µg/mL,
N=C(NCCCCCCNC(=N)NC(=N)Nc1ccc(Cl)cc1)NC(=N)Nc1ccc(Cl)cc1 [chlorexidine],,,,,,,,,,,,,,,"neither a sporicide, neither a viruscide and nor active against microbacteria"
